Source: patent US20130158070A1, “CONJUGATES OF POLYUNSATURATED FATTY ACIDS AND AMINE-CONTAINING COMPOUNDS AND USES THEREOF” (priority 2010, published 2013)

Key:
[1] = test system: DNBS-induced colitis; assay: DNBS-induced experimental colitis in mice, oral administration; format: in vivo; conditions: day four after DNBS, MWL001 50 mg/kg oral daily
Protocol: In this study, the effect of MWL001 on pro-inflammatory mediators in DNBS-induced experimental colitis in mice was evaluated. In particular it was observed that there was no expression of TNF-α, CD4, TGF-13, CD25 in the colon tissue from sham-treated mice. MWL001 and DEX were administered orally and daily starting at six hours after the DNBS challenge.
Colitis was induced with a very low dose of 2,4-dinitrobenzene sulfonic acid (DNBS) (4 mg per mouse) by using a modification of the method first described in mice. […] Mice were anesthetized by Enflurane. DNBS (4 mg in 100 μl of 50% ethanol) was injected into the rectum through a catheter inserted 4.5 cm proximally to the anus. The carrier alone (100 μl of 50% ethanol) was administered in control experiments. Thereafter, the animals were kept for 15 minutes in a Trendelenburg position to avoid reflux. […] On Day four, the animals were weighed and anaesthetized with chloral hydrate, and their abdomen was opened by a midline incision. The colon was removed, freed from surrounding tissues, opened along the antimesenteric border and processed for histology.
TNF-α and IL-6 levels were evaluated and colon tissues collected at four days after DNBS administration. Briefly, portions of terminal colon were homogenized as previously described in phosphate-buffered saline (PBS, ICN Biomedicals, Milan, Italy) containing two mmol/L of phenyl-methyl sulfonyl fluoride (PMSF, Sigma Chemical Co.). The assay was carried out using a colorimetric, commercial kit (R&D system Milan, Italy) according to the manufacturer instructions. All cytokines determinations were performed in duplicate serial dilutions.
At four days after DNBS administration, colon tissues were fixed in 10% (w/v) PBS-buffered formaldehyde and 7 μm sections were prepared from paraffin embedded tissues. After deparaffinization, endogenous peroxidase was quenched with 0.3% (v/v) hydrogen peroxide in 60% (v/v) methanol for 30 min. The sections were permeabilized with 0.1% (w/v) Triton X-100 in PBS for 20 min. Non-specific adsorption was minimized by incubating the section in 2% (v/v) normal goat serum in PBS for 20 min. Endogenous biotin or avidin binding sites were blocked by sequential incubation for 15 min with biotin and avidin (Vector Laboratories, Burlingame, Calif.), respectively. Sections were incubated overnight with: 1) purified polyclonal antibody directed towards CD4 (Santa Cruz Biotechnology, 1:500 in PBS, v/v) or 2) with purified anti-CD25 (Santa Cruz Biotecnology 1:500 in PBS, w/v) or 3) with anti- TNF-α polyclonal antibody (Santa Cruz Biotechnology, N-19:sc-1350, 1:500 in PBS, v/v) or 4) with anti-TGF-β polyclonal antibody (Santa Cruz, 1:500 in PBS, v/v).
Sections were washed with PBS, and incubated with a secondary antibody. Specific labelling was detected with a biotin-conjugated goat anti-rabbit IgG and avidin-biotin peroxidase complex (Vector Laboratories, Burlingame, Calif.).

[2] = test system: oxazolone-induced allergic dermatitis; assay: Murine oxazolone-induced allergic dermatitis; format: in vivo, mice; conditions: hematoxylin and eosin stained sections
Text: An allergic form of contact dermatitis can be induced in mice by repeated epicutaneous application of the chemical sensitizer oxazolone. This leads to local augmented thickness and weight increase of the skin area where the rechallenge was applied; from the histological point of view, oxazolone-induced dermatitis is characterized by severe mononuclear cell infiltration of the dermis with in situ production of the type 1 proinflammatory cytokines TNF-alpha, IL-1alpha and IFN-gamma. These well-defined mechanistic pathways of inflammatory skin damage make oxazolone-dermatitis a useful in vivo tool for pathogenic studies and a pharmacodynamic parameter to screen drugs of potential utility in counteracting type 1 cytokine dependent cutaneous immunoinflammatory responses such as those found in some forms of bullous disorders, cutaneous vasculitis and psoriasis.
The efficacy of MWL001 in the treatment of Murine oxazolone-induced allergic dermatitis was evaluated. MWL001 and DEX were administered one hour after the second challenge with oxazolone.
The mice were sensitized on day 0 by a single application of 10 ∞l of 2% oxazolone (Sigma Chimica, Milan, Italy) in ethanol to the inner and outer surface of the left ear. The disease was elicited by local rechallenge on day 7 with 15% oxazolone. The right ear was treated with the vehicle of oxazolone (acetone). Eighteen hours after […] the mice are sacrificed under ether anesthesia and both the right and left ears were excised.
Inflammation was assessed as the percentage increase in ear thickness and/or ear weight in the treated left ear vs. the vehicle-treated right ear. Ear thickness was measured with a digital calliper. The extent of the inflammation was quantified as follows: ear swelling (%)=100×(a−b)/b, where a is thickness/weight of the left (treated) ear and b is the thickness/weight of the right (untreated) ear.
Ear tissue samples were fixed with 4% formaldehyde in phosphate-buffered saline (PBS) and embedded in paraffin. Thereafter, 6-μm sections were deparaffinized with xylene, stained with hematoxylin-eosin and observed with a Zeiss microscope (Jena, Germany).

[3] = test system: collagen induced arthritis; assay: Collagen induced arthritis (CIA), arthritis score, paw thickness, body weight; format: in vivo, DBA/1J mice; conditions: 50 mg/kg IP; for day from which arthritis score (AS) increases: 3 times a week, 12 administrations; for CIA development: overall conclusion; for arthritis thickness index (ATI) increase: from day 0 to day 70, groups 1M DHA-Tau, 2M DHA, 4M Ibuprofen
Protocol: In a different study, 34 male 8-10 weeks old DBA/1J mice were used. Animals were fed ad libitum a commercial rodent diet (Teklad Certified Global 18% Protein Diet cat #: 106S8216). Animals had free access to acidified drinking water (pH between 2.5 and 3.0) obtained from the municipality supply.
The effect of MWL-002 (conjugate of DHA and taurine) was tested and compared to that of Ibuprofen. Cremophore EL was used as a vehicle.
On day 0, each mouse was anesthetized by inhalation of 3% isofluorane and injected intradermally at the base of the tail with 0.1 ml of emulsion containing 100 μg collagen, using a 1-ml glass syringe with a 26-guade needle. Booster injection was performed at day 15 to the same injection site.
The tested materials were administered 3 times a week, via IP for a total of 12 administrations starting on day 1.
Observations for clinical score were performed twice weekly until study termination.
The severity of arthritis was scored based on the level of inflammation in each of the four paws and recorded as one of five grades according to the following:
Hind paw thickness (edema) was measured by digital caliper once a week until Day 14 and thereafter twice weekly and prior to study termination. Two cross sectional areas were marked, one on the paw and the other at the ankle (tarsal joint). Two measurements were made on each section, perpendicular to each other. The results obtained were calculated as the average areas of both hind limbs per animal.
Body weight was measured prior to dosing, during the study twice a week and prior to study termination.

[4] = biological target: T1, COX-2 (Homo sapiens, UniProt P35354); assay: COX-2 inhibition, enzyme immunoassay (EIA); format: biochemical; conditions: ratio of COX-1 IC50 to COX-2 IC50
T1 sequence (P35354 18-604): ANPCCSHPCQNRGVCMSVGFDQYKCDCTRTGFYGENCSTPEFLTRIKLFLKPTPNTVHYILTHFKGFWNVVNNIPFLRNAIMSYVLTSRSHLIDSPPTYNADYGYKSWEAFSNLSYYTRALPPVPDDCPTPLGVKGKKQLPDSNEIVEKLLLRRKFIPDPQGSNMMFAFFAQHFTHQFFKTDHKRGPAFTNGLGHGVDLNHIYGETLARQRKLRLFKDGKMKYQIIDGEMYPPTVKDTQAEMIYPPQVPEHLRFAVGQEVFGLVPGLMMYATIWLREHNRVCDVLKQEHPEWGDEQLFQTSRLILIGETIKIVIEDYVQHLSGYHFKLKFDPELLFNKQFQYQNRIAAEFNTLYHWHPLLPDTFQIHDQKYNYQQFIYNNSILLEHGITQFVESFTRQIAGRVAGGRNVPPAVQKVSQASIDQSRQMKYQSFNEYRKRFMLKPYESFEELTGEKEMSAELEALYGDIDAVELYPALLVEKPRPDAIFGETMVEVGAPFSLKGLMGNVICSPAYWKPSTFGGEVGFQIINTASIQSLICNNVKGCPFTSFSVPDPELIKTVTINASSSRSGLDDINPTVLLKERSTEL
Protocol: Exemplary conjugates as described herein were tested in vitro for inhibition of COX-1 and COX-2, using an enzyme immunoassay (EIA), as follows.
Cyclooxygenase catalyzes the first step in the biosynthesis of arachidonic acid (AA) to PGH2. PGF2α, produced from PGH2 by reduction with stannous chloride, is measured by enzyme immunoassay (ACETM competitive EIA).
Stock solutions of test compounds were dissolved in a minimum volume of DMSO. Briefly, to a series of supplied reaction buffer solutions (960 μl, 0.1M Tris-HCl pH 8.0 containing 5 mM EDTA and 2 mM phenol) with either COX-1 or COX-2 (10 μl) enzyme in the presence of heme (10 μl) were added 10 μl of various concentrations of test drug solutions (0.01, 0.1, 1, 10, 50, and 100 μM in a final volume of 1 ml). These solutions were incubated for a period of 5 minutes at 37° C. after which 10 μL of AA (100 μM) solution were added and the COX reaction was stopped by the addition of 50 μl of 1M HCl after 2 minutes. PGF2α, produced from PGH2 by reduction with stannous chloride was measured by enzyme immunoassay.
This assay is based on the competition between PGs and a PG-acetylcholinesterase conjugate (PG tracer) for a limited amount of PG antiserum. The amount of PG tracer that is able to bind to the PG antiserum is inversely proportional to the concentration of PGs in the wells since the concentration of PG tracer is held constant while the concentration of PGs varies. The concentration of the test compound causing 50% inhibition (IC50, μM) was calculated from the concentration-inhibition response curve (duplicate determinations).

**Q.** With C[C@@H]1C[C@H]2[C@@H]3CCC4=CC(=O)C=C[C@]4(C)[C@@]3(F)[C@@H](O)C[C@]2(C)[C@@]1(O)C(=O)CO [DEX, dexamathasone, reference compound] as the compound, how does the IL-6 colon levels ([1]; colorimetric kit) read?
**A.** significant reduction

**Q.** And the TNF-α colon levels ([1]; colorimetric kit)?
**A.** significant reduction

**Q.** And the “expression of CD4 in colon tissue” value ([1]; immunostaining)?
**A.** significantly reduced

**Q.** And the “expression of CD25 in colon tissue” value ([1]; immunostaining)?
**A.** significantly reduced

**Q.** And the “expression of TGF-β in colon tissue” value ([1]; immunostaining)?
**A.** significantly reduced

**Q.** What about the “expression of TNF-α in colon tissue” value ([1]; immunostaining) of the same compound?
**A.** significantly reduced

**Q.** And the “histology: ear thickness and inflammatory cells in epidermis and dermis” value [2]?
**A.** markedly reduced

**Q.** Which “day from which arthritis score (AS) increases” value [3] does the source give for CC/C=C\C/C=C\C/C=C\C/C=C\C/C=C\C/C=C\CCC(=O)O [DHA, all-cis-4,7,10,13,16,19-docosahexaenoic acid] here?
**A.** 40 days

**Q.** And the CIA development [3]?
**A.** not substantially effective

**Q.** And the “arthritis thickness index (ATI) increase” value [3]?
**A.** 180%

**Q.** For CC(C)Cc1ccc(C(C)C(=O)O)cc1 (centres unmarked) [Ibuprofen], which “day from which arthritis score (AS) increases” value [3] is on record?
**A.** 40 days

**Q.** And the CIA development [3]?
**A.** not substantially effective

**Q.** What about the “arthritis thickness index (ATI) increase” value [3] of the same compound?
**A.** 190%

**Q.** For CCCCCCCC/C=C\CCCCCCCC(=O)n1cc(CC(=O)O)c2cc(O)ccc21 [MWL-007, N-oleoyl-5-hydroxy-indol-3-yl-acetic acid], which “Ratio (COX ½)” value [4] is on record?
**A.** 15.83
